Results taken from the supplement of paper PMC10307832.

Compound: O=c1ncccn1[C@@H]1O[C@H](CO)[C@@H](O)[C@H]1O [Zebularine]
Assay: relative viability (nuclei count vs DMSO), 5 days (fraction); higher = more cells survive
Conditions: 100 µM
Summary of the method: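 Only plates meeting two conditions passed: control CV below 25% and at least one doubling. Lung cancer cell lines, kept overnight at 37 °C in 1536-well plates, were pinned with five library-drug doses (not always all listed) √10 apart on vehicle-anchored plates and grown 5 days without medium change. A one-step fix, permeabilisation and Hoechst stain preceded 4× imaging and MetaXpress nuclear counting. Viability equals treated-well nuclei divided by vehicle-well nuclei, as the median over plates.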

Compared with ABC-1, NCI-H358 is lower in relative viability: 0.494 for the first, 0.346 for the second.

First: NCI-H650
Second: PC-3 [JPC-3]
The relative viability of the first is lower: 0.254 for the first, 0.76 for the second.

Compound: CC(C)CCN1c2nc(Nc3cc(F)c(O)c(F)c3)ncc2N(C)C(=O)C1C [BI-D1870] + CS(=O)(=O)N1CCN(Cc2cc3nc(-c4cccc5[nH]ncc45)nc(N4CCOCC4)c3s2)CC1 [Pictilisib] (partner 1 µM)
Assay: relative viability (nuclei count vs DMSO), 5 days (fraction); higher = more cells survive
Conditions: first compound 0.04 µM
Summary of the method: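 Nuclei were stained with Hoechst during a one-step fixation (final 0.05% Triton X-100, 1% formaldehyde, 1 ug/ml Hoechst) carried out 5 days after dosing, then counted on 4× images. The cells, lung cancer lines in 1536-well plates, had been dosed by pin tool the day after seeding with one drug alone or a fixed anchor-drug dose plus five library-drug doses (not always all listed) in √10 steps. Relative viability is the nuclei count in treated wells divided by that in vehicle wells, and each value is the median of duplicate plates.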

Compared with 201T, NCI-H1915 is higher in relative viability: 0.672 for the first, 1.08 for the second.

Compared with HCC-827, LXF-289 is lower in relative viability: 0.96 for the first, 0.833 for the second.

Compared with NCI-H23, NCI-H1299 is higher in relative viability: 0.625 for the first, 0.801 for the second.

First: NCI-H647
Second: CAL-12T
The relative viability of the first is lower: 0.497 for the first, 0.554 for the second.

Compared with NCI-H1651, EPLC-272H is lower in relative viability: 0.549 for the first, 0.364 for the second.

Going from NCI-H2228 to NCI-H1792, the relative viability falls from 0.395 to 0.248.

First: NCI-H1355
Second: NCI-H3122
The relative viability of the first is lower: 0.433 for the first, 0.632 for the second.

Compared with NCI-H1437, NCI-H1755 is higher in relative viability: 0.418 for the first, 0.474 for the second.

First: NCI-H2023
Second: HCC-15
The relative viability of the first is lower: 0.271 for the first, 0.792 for the second.

Compared with NCI-H1793, PC-14 is higher in relative viability: 0.295 for the first, 0.769 for the second.

Going from EKVX to LC-2-ad, the relative viability rises from 0.488 to 0.536.

First: NCI-H1563
Second: NCI-H1944
The relative viability of the first is higher: 0.674 for the first, 0.395 for the second.

Compared with NCI-H1975, RERF-LC-KJ is higher in relative viability: 0.297 for the first, 0.546 for the second.

First: ABC-1
Second: NCI-H358
The relative viability of the first is higher: 0.751 for the first, 0.38 for the second.

First: NCI-H650
Second: PC-3 [JPC-3]
The relative viability of the first is higher: 0.9 for the first, 0.768 for the second.

Same assay, conditions: first compound 0.1265 µM

Going from 201T to NCI-H1915, the relative viability rises from 0.624 to 0.914.

First: HCC-827
Second: LXF-289
The relative viability of the first is higher: 1.05 for the first, 0.763 for the second.

Compared with NCI-H23, NCI-H1299 is higher in relative viability: 0.445 for the first, 0.774 for the second.

Going from NCI-H647 to CAL-12T, the relative viability falls from 0.387 to 0.363.

Compared with NCI-H1651, EPLC-272H is lower in relative viability: 0.423 for the first, 0.295 for the second.

Compared with NCI-H2228, NCI-H1792 is lower in relative viability: 0.356 for the first, 0.274 for the second.

Going from NCI-H1355 to NCI-H3122, the relative viability rises from 0.365 to 0.434.

First: NCI-H1437
Second: NCI-H1755
The relative viability of the first is lower: 0.348 for the first, 0.408 for the second.

Going from NCI-H2023 to HCC-15, the relative viability rises from 0.199 to 0.661.

Compared with NCI-H1793, PC-14 is higher in relative viability: 0.308 for the first, 0.688 for the second.

First: EKVX
Second: LC-2-ad
The relative viability of the first is lower: 0.388 for the first, 0.456 for the second.

First: NCI-H1563
Second: NCI-H1944
The relative viability of the first is higher: 0.617 for the first, 0.294 for the second.

First: NCI-H1975
Second: RERF-LC-KJ
The relative viability of the first is lower: 0.276 for the first, 0.501 for the second.

First: ABC-1
Second: NCI-H358
The relative viability of the first is higher: 0.673 for the first, 0.233 for the second.

Going from NCI-H650 to PC-3 [JPC-3], the relative viability falls from 0.745 to 0.71.

Same assay, conditions: first compound 0.4 µM

Compared with 201T, NCI-H1915 is higher in relative viability: 0.716 for the first, 0.907 for the second.

Compared with HCC-827, LXF-289 is lower in relative viability: 1.08 for the first, 0.798 for the second.

Going from NCI-H23 to NCI-H1299, the relative viability rises from 0.433 to 0.653.

Going from NCI-H647 to CAL-12T, the relative viability falls from 0.444 to 0.382.

Going from NCI-H1651 to EPLC-272H, the relative viability falls from 0.566 to 0.275.
